Experimental data as given in the NIST ThermoML archive (doi:10.1021/je0501991).
± gives the expanded uncertainty stated by the source. One block for each compound: values may come before it.

How the values were obtained:
[1] = molar heat capacity at constant pressure; xn = mol fraction of the nth substance listed; conditions: Liquid, x1 = 1
[2] = 101.33 kPa, Liquid
[3] = refractive index (Na D-line) (dimensionless); conditions: 101.33 kPa, Liquid, Standard Abbe refractometry

Compound: OCCCc1ccccc1 [3-phenyl-1-propanol]
viscosity ([2]; 298.15 K): 10.13 ± 0.17 mPa·s | mass density ([2]; 308.15 K): 991.17 ± 0.53 kg/m3 | refractive index ([3]; 308.15 K): 1.521 ± 0.001

Compound: OCc1ccccc1 [benzenemethanol]
mass density ([2]; 298.15 K): 1041.65 ± 0.27 kg/m3 | viscosity ([2]; 298.15 K): 5.211 ± 0.076 mPa·s | mass density ([2]; 308.15 K): 1033.66 ± 0.25 kg/m3 | viscosity ([2]; 308.15 K): 4.125 ± 0.062 mPa·s | refractive index ([3]; 298.15 K): 1.5377 ± 0.0005 | refractive index ([3]; 308.15 K): 1.535 ± 0.0005

Compound: OCCc1ccccc1 [2-phenylethanol]
mass density ([2]; 308.15 K): 1008.79 ± 0.54 kg/m3 | viscosity ([2]; 308.15 K): 7.438 ± 0.12 mPa·s | refractive index ([3]; 308.15 K): 1.5267 ± 0.0008

Continued, values first:

molar heat capacity at constant pressure ([1]; 298.15 K, 101 kPa): 142.7 ± 11 J/K/mol | molar heat capacity at constant pressure ([1]; 308.15 K, 101 kPa): 143.5 ± 12 J/K/mol | molar heat capacity at constant pressure ([1]; 318.15 K, 101 kPa): 144.6 ± 12 J/K/mol
Compound: C[S+](C)[O-] [dimethyl sulfoxide] + OCCCc1ccccc1

molar heat capacity at constant pressure ([1]; 298.15 K, 101.33 kPa): 142.7 ± 11 J/K/mol | molar heat capacity at constant pressure ([1]; 308.15 K, 101.33 kPa): 143.5 ± 12 J/K/mol | molar heat capacity at constant pressure ([1]; 318.15 K, 101.33 kPa): 144.6 ± 12 J/K/mol
Compound: C[S+](C)[O-] [dimethyl sulfoxide] + OCCc1ccccc1

molar heat capacity at constant pressure ([1]; 298.15 K, 101.33 kPa): 142.7 ± 11 J/K/mol | molar heat capacity at constant pressure ([1]; 308.15 K, 101.33 kPa): 143.5 ± 12 J/K/mol | molar heat capacity at constant pressure ([1]; 318.15 K, 101.33 kPa): 144.6 ± 12 J/K/mol
Compound: C[S+](C)[O-] [dimethyl sulfoxide] + OCc1ccccc1

viscosity ([2]; 298.15 K, Capillary tube (Ostwald / Ubbelohde) method): 1.989 ± 0.023 mPa·s | mass density ([2]; 298.15 K, Vibrating tube method): 1095.68 ± 0.09 kg/m3 | viscosity ([2]; 308.15 K, Capillary tube (Ostwald / Ubbelohde) method): 1.645 ± 0.019 mPa·s | mass density ([2]; 308.15 K, Vibrating tube method): 1085.31 ± 0.09 kg/m3 | refractive index ([3]; 298.15 K): 1.4775 ± 0.0004 | refractive index ([3]; 308.15 K): 1.473 ± 0.0004
Compound: C[S+](C)[O-] [dimethyl sulfoxide]
